# Measured values: patent US6946447B2, “MDM2-specific antisense oligonucleotides” (Hybridon, Inc., priority 1997, dated 2005)
# Strand notation (5' to 3'): a small letter for the sugar, then the base; units joined by * are phosphorothioate-linked, units joined directly phosphodiester-linked; [ ] holds rarer units or linkages, { } end groups; capitals alone tell only the bases. d = 2'-deoxy (DNA)
# Tests used:
# MDM2 = MDM2 protein level by immunoprecipitation/Western blot in oligonucleotide-treated cells; assay type: cell-based, human; settings: JAR cells, 18 h, Lipofectin 7 μg/ml, Western blot (FIG. 2A)
# DNA synthesis = DNA synthesis by BrdU incorporation normalized to viable cells; assay type: cell-based; settings: cell lines that do not undergo significant apoptosis, 100 nM, 20 hr (FIG. 15)
# p53 [1] = assay: Nuclear p53 level by immunofluorescence staining with Pab1801; assay type: cell-based, human; settings: MCF-7 cells, 200 nM, 20 hr
# p53 [2] = assay: BP100-luciferase reporter in several representative cell lines; assay type: cell-based; settings: stably transfected cell lines, 20 hr (FIG. 13)
# Method: Cells stably transfected with the BP100-luciferase reporter were treated with antisense oligonucleotides at indicated concentrations for 20 hr. Luciferase activity/unit protein was determined and the magnitude of induction was shown compared to cells not treated with oligonucleotides. AS2M4: a 4 bp mismatch control of AS5-2. K: an unrelated oligonucleotide.
# In order to determine whether the p53 protein that accumulates after inhibition of MDM2 is functionally active, a p53-responsive BP100-luciferase reporter plasmid was transfected into several representative cell lines. Stably transfected cells were then treated with AS5-2 or control oligonucleotides. […] The magnitude of p53 transcription activation is consistent with the fact that most of the p53 accumulation occurs in the nucleus, which has a low basal level of p53.
Substance,inhibition of MDM2 expression (MDM2),rate of DNA synthesis (BrdU incorporation) (DNA synthesis),nuclear p53 staining (p53 [1]),induction of p53 transcription function (p53 [2])
"K: control oligonucleotide complementary to an ion channel, 5′-CAGAGCCTTCATCTTCCCAG-3′; SEQ ID NO:6 (chemistry not given here)",not observed,not observed,did not induce p53,
"AS2M4: 4 bp mismatch control of AS5-2, 5′-TGACTCTTGTCCTTACTCAC-3′; SEQ ID NO: 26 (DNA dT*dG*dA*dC*dT*dC*dT*dT*dG*dT*dC*dC*dT*dT*dA*dC*dT*dC*dA*dC)",,weaker,,significantly reduced efficiency
